Data from patent US20060166900A1, “Salt of morphine-6-glucuronide” (CeNeS Limited, priority 2002, published 2006).

How the values were obtained:
Assay type in all cases: physicochemical
[1] = Visual appearance on storage (Example 3)
Experimental: (§1) Each test material was stored between 2-8*C prior to placing on stability. Each material was sub-divided into 900 mg aliquots, transferred to brown opaque HDPE plastic bottles and flushed with Argon prior to sealing. Sufficient samples were provided for each time point as well as spares for each storage condition. The samples were placed in appropriate incubators previously commissioned at storage conditions 25° C./60% RH, 40° C./75% RH and 60° C.
The samples were stored for analysis according to the following table: […]

[2] = Water content by Karl Fisher analysis on storage (Example 3)
Experimental: Water content (% w/w) by Karl Fisher analysis
as §1
Water Content by Karl Fisher Analysis
Water content was determined in duplicate on an aliquot of equilibrated material (approximately 100 mg) using a Tritrino 720 KFS Titrator.

[3] = Colour of solution by visible spectrophotometry on storage (Example 3); conditions: 5% w/v solution in water
Experimental: Colour of solution by UV spectrophotometry.
as §1
Colour by Visible Spectrophotometry
A 5% w/v solution of test material was prepared in water and the absorbance measured at 420 nm in a 1 cm silica cell using a Unicam UV4 Visible/UV spectrophotometer.

[4] = Stability indicating HPLC assay and related substances on storage (Example 3)
Experimental: Assay (% w/w) and related substances determination
as §1
Testing Procedures Test for Identity Content and Impurities
Testing was performed in duplicate (2×25 mg) in accordance with a stability indicating HPLC assay method. The assay results were reported as M6G as is, M6G as the anhydrous, solvent free material and the anhydrous solvent free material corrected for the salt form using the relevant conversion factor.

For `CN1CCC23c4c5ccc(O)c4OC2C(OC2OC(C(=O)O)C(O)C(O)C2O)C=CC3C1C5.CN1CCC23c4c5ccc(O)c4OC2C(OC2OC(C(=O)O)C(O)C(O)C2O)C=CC3C1C5.O=C(O)C=CC(=O)O` (stereo not shown) [Morphine-6-glucuronide maleate], the Appearance ([1]; 1 month, 25° C./60% RH) was “White crystalline powder”, the Appearance ([1]; 1 month, 40° C./75% RH) was “Pale yellow crystalline powder” and the Appearance ([1]; 1 month, 60° C.) was “Yellow crystalline powder”. For the same compound, the Appearance ([1]; 3 months, 25° C./60% RH) was “Pale yellow crystalline powder”, the Appearance ([1]; 3 months, 40° C./75% RH) was “Yellow crystalline powder” and the Appearance ([1]; Initial) was “White crystalline powder”. It also gave a Moisture ([2]; 1 month, 25° C./60% RH) of 7.53 % w/w, a Moisture ([2]; 1 month, 40° C./75% RH) of 7.60 % w/w and a Moisture ([2]; 1 month, 60° C.) of 5.01 % w/w. It also gave a Moisture ([2]; 3 months, 25° C./60% RH) of 7.14 % w/w, a Moisture ([2]; 3 months, 40° C./75% RH) of 9.24 % w/w and a Moisture ([2]; Initial) of 6.14 % w/w. It also gave a Colour ([3]; 1 month, 25° C./60% RH) of 0.084 Abs@420 nm, a Colour ([3]; 1 month, 40° C./75% RH) of 0.297 Abs@420 nm and a Colour ([3]; 1 month, 60° C.) of 0.739 Abs@420 nm. The Colour ([3]; 3 months, 25° C./60% RH) was 0.209 Abs@420 nm, the Colour ([3]; 3 months, 40° C./75% RH) was 0.879 Abs@420 nm and the Colour ([3]; Initial) was 0.017 Abs@420 nm. The “Known Related Substances HN33177” value ([4]; 1 month, 25° C./60% RH) was 0.76%, the “Known Related Substances HN67003” value ([4]; 1 month, 25° C./60% RH) was 0.17% and the “Known Related Substances HN75083” value ([4]; 1 month, 25° C./60% RH) was 0.05%. The “M6G Assay, Anhydrous basis” value ([4]; 1 month, 25° C./60% RH) was 86.66 % w/w, the “M6G Assay, As is basis” value ([4]; 1 month, 25° C./60% RH) was 80.27 % w/w and the “M6G Assay, Corrected for the salt form” value ([4]; 1 month, 25° C./60% RH) was 97.56 % w/w. For the same compound, the “Total Known” value ([4]; 1 month, 25° C./60% RH) was 0.98%, the “Total Related Substances” value ([4]; 1 month, 25° C./60% RH) was 1.39% and the “Total Unknown” value ([4]; 1 month, 25° C./60% RH) was 0.41%. For the same compound, the “Known Related Substances HN33177” value ([4]; 1 month, 40° C./75% RH) was 0.65%, the “Known Related Substances HN67003” value ([4]; 1 month, 40° C./75% RH) was 0.94% and the “Known Related Substances HN75076” value ([4]; 1 month, 40° C./75% RH) was 0.03%. The “Known Related Substances HN75083” value ([4]; 1 month, 40° C./75% RH) was 0.03%, the “Known Related Substances Morphine” value ([4]; 1 month, 40° C./75% RH) was 0.12% and the “M6G Assay, Anhydrous basis” value ([4]; 1 month, 40° C./75% RH) was 83.28 % w/w. The “M6G Assay, As is basis” value ([4]; 1 month, 40° C./75% RH) was 77.07 % w/w, the “M6G Assay, Corrected for the salt form” value ([4]; 1 month, 40° C./75% RH) was 93.75 % w/w and the “Total Known” value ([4]; 1 month, 40° C./75% RH) was 1.77%. For the same compound, the “Total Related Substances” value ([4]; 1 month, 40° C./75% RH) was 4.80%, the “Total Unknown” value ([4]; 1 month, 40° C./75% RH) was 3.03% and the “Known Related Substances HN33177” value ([4]; 1 month, 60° C.) was 0.50%. For the same compound, the “Known Related Substances HN67003” value ([4]; 1 month, 60° C.) was 1.20%, the “Known Related Substances HN75076” value ([4]; 1 month, 60° C.) was 0.14% and the “Known Related Substances HN75083” value ([4]; 1 month, 60° C.) was 0.02%. For the same compound, the “Known Related Substances Morphine” value ([4]; 1 month, 60° C.) was 0.32%, the “M6G Assay, Anhydrous basis” value ([4]; 1 month, 60° C.) was 80.36 % w/w and the “M6G Assay, As is basis” value ([4]; 1 month, 60° C.) was 76.46 % w/w. For the same compound, the “M6G Assay, Corrected for the salt form” value ([4]; 1 month, 60° C.) was 90.47 % w/w, the “Total Known” value ([4]; 1 month, 60° C.) was 2.18% and the “Total Related Substances” value ([4]; 1 month, 60° C.) was 6.09%. The “Total Unknown” value ([4]; 1 month, 60° C.) was 3.91%, the “Known Related Substances HN33177” value ([4]; 3 months, 25° C./60% RH) was 0.52% and the “Known Related Substances HN67003” value ([4]; 3 months, 25° C./60% RH) was 0.58%. The “Known Related Substances HN75083” value ([4]; 3 months, 25° C./60% RH) was 0.06%, the “Known Related Substances Morphine” value ([4]; 3 months, 25° C./60% RH) was 0.04% and the “M6G Assay, Anhydrous basis” value ([4]; 3 months, 25° C./60% RH) was 85.11 % w/w. For the same compound, the “M6G Assay, As is basis” value ([4]; 3 months, 25° C./60% RH) was 80.04 % w/w, the “M6G Assay, Corrected for the salt form” value ([4]; 3 months, 25° C./60% RH) was 95.81 % w/w and the “Total Known” value ([4]; 3 months, 25° C./60% RH) was 1.20%. For the same compound, the “Total Related Substances” value ([4]; 3 months, 25° C./60% RH) was 3.55%, the “Total Unknown” value ([4]; 3 months, 25° C./60% RH) was 2.35% and the “Known Related Substances HN33177” value ([4]; 3 months, 40° C./75% RH) was 0.50%. The “Known Related Substances HN67003” value ([4]; 3 months, 40° C./75% RH) was 1.68%, the “Known Related Substances HN75076” value ([4]; 3 months, 40° C./75% RH) was 0.40% and the “Known Related Substances Morphine” value ([4]; 3 months, 40° C./75% RH) was 0.43%. The “M6G Assay, Anhydrous basis” value ([4]; 3 months, 40° C./75% RH) was 78.73 % w/w, the “M6G Assay, As is basis” value ([4]; 3 months, 40° C./75% RH) was 72.37 % w/w and the “M6G Assay, Corrected for the salt form” value ([4]; 3 months, 40° C./75% RH) was 88.63 % w/w. The “Total Known” value ([4]; 3 months, 40° C./75% RH) was 3.01%, the “Total Related Substances” value ([4]; 3 months, 40° C./75% RH) was 9.94% and the “Total Unknown” value ([4]; 3 months, 40° C./75% RH) was 6.93%. For the same compound, the “drop in assay compared to the initial values” ([4]; 3 months, 40° C./75% RH) was “around 10%”, the “Known Related Substances HN33177” value ([4]; Initial) was 0.76% and the “Known Related Substances HN67003” value ([4]; Initial) was 0.04%. The “Known Related Substances HN75083” value ([4]; Initial) was 0.05%, the “M6G Assay, Anhydrous basis” value ([4]; Initial) was 88.28 % w/w and the “M6G Assay, As is basis” value ([4]; Initial) was 83.61 % w/w. The “M6G Assay, Corrected for the salt form” value ([4]; Initial) was 99.40 % w/w, the “Total Known” value ([4]; Initial) was 0.85% and the “Total Related Substances” value ([4]; Initial) was 0.85%. For the same compound, the “Total Unknown” value ([4]; Initial) was 0.00%.
